Reference: patent US6504058B1 (priority 1997, dated 2003)

Experiments:
[1] = system: Botrytis cinerea; assay: Test E: gray mold, preventive spray on cucumber seedlings, disease rating; assay type: in vivo, Botrytis cinerea (on cucumber seedlings); settings: 200 ppm test suspension sprayed to run-off (equivalent to 500 g/ha) on cucumber seedlings; 100 = 100% disease control, 0 = no control; # = significant activity
From the text: (§1) Test compounds were first dissolved in acetone in an amount equal to 3% of the final volume and then suspended at a concentration of 200 ppm in purified water containing 250 ppm of the surfactant Trem® 014 (polyhydric alcohol esters). The resulting test suspensions were then used in the following test. Spraying these 200 ppm test suspensions to the point of run-off on the test plants is the equivalent of a rate of 500 g/ha.
The test suspension was sprayed to the point of run-off on cucumber seedlings. The following day the seedlings were inoculated with a spore suspension of Botrytis cinerea (the causal agent of gray mold on many crops) and incubated in a saturated atmosphere at 20° C. for 48 h, and moved to a growth chamber at 20° C. for 5 days, after which disease ratings were made.
(§2) Results for Tests A-E are given in Table A. In the table, a rating of 100 indicates 100% disease control and a rating of 0 indicates no disease control (relative to the controls). A dash (-) indicates no test results. ND indicates disease control not determined due to phytotoxicity. # indicates significant activity.

[2] = system: Erysiphe graminis f. sp. tritici; assay: Test A: wheat powdery mildew, preventive spray on wheat seedlings, disease rating; assay type: in vivo, Erysiphe graminis f. sp. tritici (on wheat seedlings); settings: 200 ppm test suspension sprayed to run-off (equivalent to 500 g/ha) on wheat seedlings; 100 = 100% disease control, 0 = no control; # = significant activity
From the text: as §1
The test suspension was sprayed to the point of run-off on wheat seedlings. The following day the seedlings were inoculated with a spore dust of Erysiphe graminis f. sp. tritici, (the causal agent of wheat powdery mildew) and incubated in a growth chamber at 20° C. for 7 days, after which disease ratings were made.
as §2

[3] = system: Phytophthora infestans; assay type: in vivo, Phytophthora infestans (on tomato seedlings); settings: 200 ppm test suspension sprayed to run-off (equivalent to 500 g/ha) on tomato seedlings; 100 = 100% disease control, 0 = no control; # = significant activity
[4] = system: Pyricularia oryzae; assay type: in vivo, Pyricularia oryzae (on rice seedlings); settings: 200 ppm test suspension sprayed to run-off (equivalent to 500 g/ha) on rice seedlings; 100 = 100% disease control, 0 = no control; # = significant activity
[5] = system: Puccinia recondita; assay: Test B: wheat leaf rust, preventive spray on wheat seedlings, disease rating; assay type: in vivo, Puccinia recondita (on wheat seedlings); settings: 200 ppm test suspension sprayed to run-off (equivalent to 500 g/ha) on wheat seedlings; 100 = 100% disease control, 0 = no control; # = significant activity
From the text: as §1
The test suspension was sprayed to the point of run-off on wheat seedlings. The following day the seedlings were inoculated with a spore suspension of Puccinia recondita (the causal agent of wheat leaf rust) and incubated in a saturated atmosphere at 20° C. for 24 h, and then moved to a growth chamber at 20° C. for 6 days, after which disease ratings were made.
as §2

SMILES: CC(COc1cc(F)ccc1C#N)NC(=O)C1(C)CC(C)(Cl)C1 (centres unmarked) [compound 44]
- Test E disease control rating (gray mold) [1]: 84%
- Test A disease control rating (wheat powdery mildew) [2]: 0 (a rating of 0 indicates no disease control (relative to the controls))
- Test D disease control rating (potato and tomato late blight) [3]: 20%
- Test C disease control rating (rice blast) [4]: 94# %
- Test B disease control rating (wheat leaf rust) [5]: 0 (a rating of 0 indicates no disease control (relative to the controls))

SMILES: CC(COc1cc(Cl)ccc1F)NC(=O)C1(C)CC(C)(Br)C1 (centres unmarked) [compound 54]
- Test E disease control rating (gray mold) [1]: 0 (a rating of 0 indicates no disease control (relative to the controls))
- Test A disease control rating (wheat powdery mildew) [2]: 24%
- Test D disease control rating (potato and tomato late blight) [3]: 0 (a rating of 0 indicates no disease control (relative to the controls))
- Test C disease control rating (rice blast) [4]: 97# %
- Test B disease control rating (wheat leaf rust) [5]: 0 (a rating of 0 indicates no disease control (relative to the controls))

SMILES: CC(COc1cc(Cl)ccc1F)NC(=O)C1(C)CC(C)(Br)C1 (centres unmarked) [compound 53]
- Test E disease control rating (gray mold) [1]: 0 (a rating of 0 indicates no disease control (relative to the controls))
- Test A disease control rating (wheat powdery mildew) [2]: 100# (a rating of 100 indicates 100% disease control)
- Test D disease control rating (potato and tomato late blight) [3]: 0 (a rating of 0 indicates no disease control (relative to the controls))
- Test C disease control rating (rice blast) [4]: 100# (a rating of 100 indicates 100% disease control)
- Test B disease control rating (wheat leaf rust) [5]: 0 (a rating of 0 indicates no disease control (relative to the controls))

SMILES: CC(COc1cc(Cl)ccc1C#N)NC(=O)C1(C)CC(C)(Cl)C1 (centres unmarked) [compound 45]
- Test E disease control rating (gray mold) [1]: 0 (a rating of 0 indicates no disease control (relative to the controls))
- Test A disease control rating (wheat powdery mildew) [2]: 0 (a rating of 0 indicates no disease control (relative to the controls))
- Test D disease control rating (potato and tomato late blight) [3]: 61%
- Test C disease control rating (rice blast) [4]: 99# %
- Test B disease control rating (wheat leaf rust) [5]: 0 (a rating of 0 indicates no disease control (relative to the controls))

SMILES: CC(COc1cc(Cl)ccc1F)NC(=O)C1(C)CC(C)(Cl)C1 (centres unmarked) [compound 51]
- Test E disease control rating (gray mold) [1]: 0 (a rating of 0 indicates no disease control (relative to the controls))
- Test A disease control rating (wheat powdery mildew) [2]: 83# %
- Test D disease control rating (potato and tomato late blight) [3]: 0 (a rating of 0 indicates no disease control (relative to the controls))
- Test C disease control rating (rice blast) [4]: 100# (a rating of 100 indicates 100% disease control)
- Test B disease control rating (wheat leaf rust) [5]: 0 (a rating of 0 indicates no disease control (relative to the controls))

SMILES: CC(NC(=O)C1(C)CC(C)(Cl)C1)c1ccc(Cl)cc1Cl (centres unmarked) [compound 19]
- Test E disease control rating (gray mold) [1]: 0 (a rating of 0 indicates no disease control (relative to the controls))
- Test A disease control rating (wheat powdery mildew) [2]: 33%
- Test D disease control rating (potato and tomato late blight) [3]: 0 (a rating of 0 indicates no disease control (relative to the controls))
- Test C disease control rating (rice blast) [4]: 100# (a rating of 100 indicates 100% disease control)
- Test B disease control rating (wheat leaf rust) [5]: 0 (a rating of 0 indicates no disease control (relative to the controls))

SMILES: CC(COc1cc(F)ccc1F)NC(=O)C1(C)CC(C)(Br)C1 (centres unmarked) [compound 58]
- Test E disease control rating (gray mold) [1]: 0 (a rating of 0 indicates no disease control (relative to the controls))
- Test A disease control rating (wheat powdery mildew) [2]: 72%
- Test D disease control rating (potato and tomato late blight) [3]: 0 (a rating of 0 indicates no disease control (relative to the controls))
- Test C disease control rating (rice blast) [4]: 97# %
- Test B disease control rating (wheat leaf rust) [5]: 0 (a rating of 0 indicates no disease control (relative to the controls))

SMILES: CC(NC(=O)C1(C)CC(C)(Cl)C1)c1ccc2ccccc2c1 (centres unmarked) [compound 23]
- Test E disease control rating (gray mold) [1]: 0 (a rating of 0 indicates no disease control (relative to the controls))
- Test A disease control rating (wheat powdery mildew) [2]: 0 (a rating of 0 indicates no disease control (relative to the controls))
- Test D disease control rating (potato and tomato late blight) [3]: 0 (a rating of 0 indicates no disease control (relative to the controls))
- Test C disease control rating (rice blast) [4]: 97# %
- Test B disease control rating (wheat leaf rust) [5]: 0 (a rating of 0 indicates no disease control (relative to the controls))

SMILES: CC(NC(=O)C1(C)CC(C)(Cl)C1)c1cccc2ccccc12 (centres unmarked) [compound 21]
- Test E disease control rating (gray mold) [1]: 0 (a rating of 0 indicates no disease control (relative to the controls))
- Test A disease control rating (wheat powdery mildew) [2]: 0 (a rating of 0 indicates no disease control (relative to the controls))
- Test D disease control rating (potato and tomato late blight) [3]: 0 (a rating of 0 indicates no disease control (relative to the controls))
- Test C disease control rating (rice blast) [4]: 0 (a rating of 0 indicates no disease control (relative to the controls))
- Test B disease control rating (wheat leaf rust) [5]: 0 (a rating of 0 indicates no disease control (relative to the controls))

SMILES: CC(NC(=O)C1(C)CC(C)(Cl)C1)c1ccc(Cl)cc1Cl (centres unmarked) [compound 72]
- Test E disease control rating (gray mold) [1]: 0 (a rating of 0 indicates no disease control (relative to the controls))
- Test A disease control rating (wheat powdery mildew) [2]: 91# %
- Test D disease control rating (potato and tomato late blight) [3]: 66%
- Test C disease control rating (rice blast) [4]: 99# %
- Test B disease control rating (wheat leaf rust) [5]: 0 (a rating of 0 indicates no disease control (relative to the controls))

SMILES: CC(COc1cc(F)ccc1Cl)NC(=O)C1(C)CC(C)(Cl)C1 (centres unmarked) [compound 49]
- Test E disease control rating (gray mold) [1]: 0 (a rating of 0 indicates no disease control (relative to the controls))
- Test A disease control rating (wheat powdery mildew) [2]: 98# %
- Test D disease control rating (potato and tomato late blight) [3]: 0 (a rating of 0 indicates no disease control (relative to the controls))
- Test C disease control rating (rice blast) [4]: 100# (a rating of 100 indicates 100% disease control)
- Test B disease control rating (wheat leaf rust) [5]: 0 (a rating of 0 indicates no disease control (relative to the controls))

SMILES: CC(COc1cc(Br)ccc1C#N)NC(=O)C1(C)CC(C)(Cl)C1 (centres unmarked) [compound 47]
- Test E disease control rating (gray mold) [1]: 0 (a rating of 0 indicates no disease control (relative to the controls))
- Test A disease control rating (wheat powdery mildew) [2]: 97# %
- Test D disease control rating (potato and tomato late blight) [3]: 26%
- Test C disease control rating (rice blast) [4]: 94# %
- Test B disease control rating (wheat leaf rust) [5]: 25%

SMILES: CC(NC(=O)C1(C)CC(C)(Cl)C1)c1ccc(Cl)cc1Cl (centres unmarked) [compound 20]
- Test E disease control rating (gray mold) [1]: 0 (a rating of 0 indicates no disease control (relative to the controls))
- Test A disease control rating (wheat powdery mildew) [2]: 59%
- Test D disease control rating (potato and tomato late blight) [3]: 0 (a rating of 0 indicates no disease control (relative to the controls))
- Test C disease control rating (rice blast) [4]: 100# (a rating of 100 indicates 100% disease control)
- Test B disease control rating (wheat leaf rust) [5]: 0 (a rating of 0 indicates no disease control (relative to the controls))

SMILES: CC(NC(=O)C1CC(C)(Cl)C1)C(Oc1ccccc1C#N)c1ccccc1 (centres unmarked) [compound 36]
- Test E disease control rating (gray mold) [1]: 0 (a rating of 0 indicates no disease control (relative to the controls))
- Test A disease control rating (wheat powdery mildew) [2]: 0 (a rating of 0 indicates no disease control (relative to the controls))
- Test D disease control rating (potato and tomato late blight) [3]: 0 (a rating of 0 indicates no disease control (relative to the controls))
- Test C disease control rating (rice blast) [4]: 0 (a rating of 0 indicates no disease control (relative to the controls))
- Test B disease control rating (wheat leaf rust) [5]: 0 (a rating of 0 indicates no disease control (relative to the controls))

SMILES: CC(NC(=O)C1CC(C)(Cl)C1)C(Oc1cc(F)ccc1F)c1ccccc1 (centres unmarked) [compound 31]
- Test E disease control rating (gray mold) [1]: 0 (a rating of 0 indicates no disease control (relative to the controls))
- Test A disease control rating (wheat powdery mildew) [2]: 0 (a rating of 0 indicates no disease control (relative to the controls))
- Test D disease control rating (potato and tomato late blight) [3]: 0 (a rating of 0 indicates no disease control (relative to the controls))
- Test C disease control rating (rice blast) [4]: 90# %
- Test B disease control rating (wheat leaf rust) [5]: 0 (a rating of 0 indicates no disease control (relative to the controls))

SMILES: CC(COc1cc(F)ccc1Cl)NC(=O)C1(C)CC(C)(Br)C1 (centres unmarked) [compound 55]
- Test E disease control rating (gray mold) [1]: 0 (a rating of 0 indicates no disease control (relative to the controls))
- Test A disease control rating (wheat powdery mildew) [2]: 83# %
- Test D disease control rating (potato and tomato late blight) [3]: 0 (a rating of 0 indicates no disease control (relative to the controls))
- Test C disease control rating (rice blast) [4]: 74%
- Test B disease control rating (wheat leaf rust) [5]: 0 (a rating of 0 indicates no disease control (relative to the controls))
